Reference: US4228298A, “15-Deoxy-16-hydroxy-16-fluoromethyl, difluoromethyl or trifluoromethyl prostaglandins of the E and F series” (American Cyanamid Company, priority 1979, dated 1980)

Columns and labels:
Format in all cases: in vivo
[1] = system: bronchospasms elicited by serotonin; test: Konzett procedure, bronchodilator activity against bronchospasms elicited by intravenous serotonin; conditions: Cavia porcellus; spasmogen serotonin; three logarithmic cumulative intravenous doses; guinea-pigs; read-out: ED 50 (spasmogen Serotonin)
Protocol: (§1) The bronchodilator activity for representative compounds of this invention was determined in Guinea-Pigs against bronchospasms elicited by intravenous injections of serotonin, histamine, and acetylcholine, by the Konzett procedure the details of which are those discussed by J. Lulling, P. Lievens, F. El Sayed and J. Prignot, Arzeimittel-Forschung 18, 995 (1968).
(§2) In the table which follows, bronchodilator activity for representative compounds of the invention against spasmogenic agents serotonin, histamine, and acetylcholine is expressed as an ED50 determined from the results obtained with three logarithmic cumulative intravenous doses.

[2] = system: bronchospasms elicited by histamine; test: Konzett procedure, bronchodilator activity against bronchospasms elicited by intravenous histamine; conditions: Cavia porcellus; spasmogen histamine; three logarithmic cumulative intravenous doses; guinea-pigs; read-out: ED 50 (spasmogen Histamine)
Protocol: as §1, §2

[3] = system: bronchospasms elicited by acetylcholine; test: Konzett procedure, bronchodilator activity against bronchospasms elicited by intravenous acetylcholine; conditions: Cavia porcellus; spasmogen acetylcholine; three logarithmic cumulative intravenous doses; guinea-pigs; read-out: ED 50 (spasmogen Acetylcholine)
Protocol: as §1, §2

## CCCCC(O)(CF)C/C=C/[C@H]1[C@H](O)CC(=O)[C@@H]1C/C=C\CCCC(=O)O (relative stereo) [dl-11α,16-dihydroxy-9-oxo-16-fluoromethyl-5-cis-13-trans prostadienoic acid]
[1]
  ED50: 1.38 µg/kg
[2]
  ED50: 2.57 µg/kg
[3]
  ED50: 1.94 µg/kg

## CCCCC(O)(C/C=C/[C@H]1[C@H](O)CC(=O)[C@@H]1C/C=C\CCCC(=O)O)C(F)F (relative stereo) [dl-11α,16-dihydroxy-9-oxo-16-difluoromethyl-5-cis-13-trans prostadienoic acid]
[1]
  ED50: 4.6 µg/kg
[2]
  ED50: 2.78 µg/kg
[3]
  ED50: 4.04 µg/kg

## CCCCC(O)(C/C=C/[C@H]1[C@H](O)CC(=O)[C@@H]1C/C=C\CCCC(=O)O)C(F)(F)F (relative stereo) [dl-11α,16-dihydroxy-9-oxo-16-trifluoromethyl-5-cis-13-trans prostadienoic acid]
[1]
  ED50: 7.96 µg/kg
[2]
  ED50: 4.15 µg/kg
[3]
  ED50: 10 µg/kg
